Legend:
[1] = target: T1, Serine/threonine-protein kinase D1 (Homo sapiens) (UniProt Q15139); experiment: Residual activity of human PKCmu/PRKD1 using KKLNRTLSVA as substrate at 1 uM in presence of 32P-ATP by Hotspot assay relative to control
T1 sequence (whole entry): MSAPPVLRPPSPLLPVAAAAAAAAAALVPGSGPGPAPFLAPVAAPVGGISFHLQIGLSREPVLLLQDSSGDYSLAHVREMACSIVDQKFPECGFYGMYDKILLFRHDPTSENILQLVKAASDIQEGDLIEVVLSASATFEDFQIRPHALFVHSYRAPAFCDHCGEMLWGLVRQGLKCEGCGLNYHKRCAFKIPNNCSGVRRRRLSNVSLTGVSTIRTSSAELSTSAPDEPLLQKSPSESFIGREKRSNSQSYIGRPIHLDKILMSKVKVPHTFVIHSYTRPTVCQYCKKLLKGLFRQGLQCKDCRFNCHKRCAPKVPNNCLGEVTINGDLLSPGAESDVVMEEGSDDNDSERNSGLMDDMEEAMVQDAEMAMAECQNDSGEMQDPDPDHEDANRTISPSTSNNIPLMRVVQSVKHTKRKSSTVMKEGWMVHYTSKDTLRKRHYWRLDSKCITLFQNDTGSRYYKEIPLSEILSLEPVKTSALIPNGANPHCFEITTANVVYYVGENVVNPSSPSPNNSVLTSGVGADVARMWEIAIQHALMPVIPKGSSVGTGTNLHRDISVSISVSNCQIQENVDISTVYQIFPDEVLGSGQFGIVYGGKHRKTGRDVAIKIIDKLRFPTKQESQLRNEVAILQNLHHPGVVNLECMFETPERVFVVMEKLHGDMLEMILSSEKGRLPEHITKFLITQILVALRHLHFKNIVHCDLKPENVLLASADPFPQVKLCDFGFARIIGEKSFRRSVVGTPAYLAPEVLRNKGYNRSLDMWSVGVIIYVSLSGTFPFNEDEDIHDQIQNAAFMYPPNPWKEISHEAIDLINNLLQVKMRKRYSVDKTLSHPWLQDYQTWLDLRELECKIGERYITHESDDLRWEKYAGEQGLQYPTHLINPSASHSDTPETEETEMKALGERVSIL

[2] = target: T2, Ephrin type-B receptor 4 (Homo sapiens) (UniProt P54760); experiment: Inhibition of human EPHB4 using poly[Glu:Tyr] (4:1) as substrate at 1 uM in presence of 32P-ATP by Hotspot assay relative to control; values are per cent of control
T2 sequence (whole entry): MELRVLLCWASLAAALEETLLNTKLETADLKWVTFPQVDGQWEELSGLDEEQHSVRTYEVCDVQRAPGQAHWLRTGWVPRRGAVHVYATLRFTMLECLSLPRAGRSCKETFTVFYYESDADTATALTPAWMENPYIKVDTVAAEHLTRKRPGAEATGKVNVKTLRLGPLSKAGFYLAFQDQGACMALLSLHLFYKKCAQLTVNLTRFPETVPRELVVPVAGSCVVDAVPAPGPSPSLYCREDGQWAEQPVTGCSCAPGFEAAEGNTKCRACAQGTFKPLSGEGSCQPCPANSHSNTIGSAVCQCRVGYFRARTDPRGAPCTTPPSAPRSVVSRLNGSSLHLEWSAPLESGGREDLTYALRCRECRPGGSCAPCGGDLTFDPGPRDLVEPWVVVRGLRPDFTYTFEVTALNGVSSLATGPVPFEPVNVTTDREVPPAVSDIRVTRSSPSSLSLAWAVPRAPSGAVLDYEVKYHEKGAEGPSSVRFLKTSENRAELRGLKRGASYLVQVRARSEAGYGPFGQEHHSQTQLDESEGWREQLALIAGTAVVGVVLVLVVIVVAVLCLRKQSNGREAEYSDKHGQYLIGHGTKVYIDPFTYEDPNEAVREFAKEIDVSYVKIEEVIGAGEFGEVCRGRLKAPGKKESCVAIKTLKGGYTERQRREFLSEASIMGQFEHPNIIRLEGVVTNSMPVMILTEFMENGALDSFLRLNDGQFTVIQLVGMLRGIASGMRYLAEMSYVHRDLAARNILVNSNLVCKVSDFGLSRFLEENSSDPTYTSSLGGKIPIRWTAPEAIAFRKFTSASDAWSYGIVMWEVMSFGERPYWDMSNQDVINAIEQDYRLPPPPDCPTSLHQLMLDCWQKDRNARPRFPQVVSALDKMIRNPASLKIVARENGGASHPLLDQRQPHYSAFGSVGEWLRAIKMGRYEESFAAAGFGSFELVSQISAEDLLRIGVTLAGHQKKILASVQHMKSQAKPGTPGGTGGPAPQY

[3] = target: Calcium/calmodulin-dependent protein kinase type II subunit beta (Homo sapiens) (UniProt Q13554); experiment: Residual activity of human CAMK2b using KKALRRQETVDAL as substrate at 1 uM in presence of 32P-ATP by Hotspot assay relative to control
[4] = target: T3, cGMP-dependent protein kinase 1 (Homo sapiens) (UniProt Q13976); experiment: Inhibition of human PKG1b using LRRASLG as substrate at 1 uM in presence of 32P-ATP by Hotspot assay relative to control; values are per cent of control
T3 sequence (whole entry): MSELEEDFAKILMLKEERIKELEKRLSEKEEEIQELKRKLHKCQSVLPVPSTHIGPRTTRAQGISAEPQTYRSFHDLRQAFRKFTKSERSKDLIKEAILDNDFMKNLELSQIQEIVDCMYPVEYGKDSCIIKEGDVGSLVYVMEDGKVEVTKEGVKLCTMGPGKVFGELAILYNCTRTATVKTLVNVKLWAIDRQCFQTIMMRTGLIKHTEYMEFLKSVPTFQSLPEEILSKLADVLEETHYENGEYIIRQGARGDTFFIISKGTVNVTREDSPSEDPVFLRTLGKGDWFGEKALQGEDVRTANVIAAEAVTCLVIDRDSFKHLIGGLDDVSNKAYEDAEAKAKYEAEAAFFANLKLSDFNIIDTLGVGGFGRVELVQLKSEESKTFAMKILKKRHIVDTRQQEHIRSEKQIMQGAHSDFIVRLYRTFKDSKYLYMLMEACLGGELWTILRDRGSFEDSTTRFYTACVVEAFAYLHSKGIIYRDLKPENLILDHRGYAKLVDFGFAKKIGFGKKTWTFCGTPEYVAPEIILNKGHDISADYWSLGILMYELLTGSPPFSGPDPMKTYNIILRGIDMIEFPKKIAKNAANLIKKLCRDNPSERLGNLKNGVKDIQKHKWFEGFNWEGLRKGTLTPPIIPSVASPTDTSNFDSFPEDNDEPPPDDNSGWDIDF

[5] = target: G protein-coupled receptor kinase 5 (Homo sapiens) (UniProt P34947); experiment: Residual activity of human GRK5 using casein as substrate at 1 uM in presence of 32P-ATP by Hotspot assay relative to control
Sequence of G protein-coupled receptor kinase 5 (Homo sapiens) (P34947 whole entry, looked up): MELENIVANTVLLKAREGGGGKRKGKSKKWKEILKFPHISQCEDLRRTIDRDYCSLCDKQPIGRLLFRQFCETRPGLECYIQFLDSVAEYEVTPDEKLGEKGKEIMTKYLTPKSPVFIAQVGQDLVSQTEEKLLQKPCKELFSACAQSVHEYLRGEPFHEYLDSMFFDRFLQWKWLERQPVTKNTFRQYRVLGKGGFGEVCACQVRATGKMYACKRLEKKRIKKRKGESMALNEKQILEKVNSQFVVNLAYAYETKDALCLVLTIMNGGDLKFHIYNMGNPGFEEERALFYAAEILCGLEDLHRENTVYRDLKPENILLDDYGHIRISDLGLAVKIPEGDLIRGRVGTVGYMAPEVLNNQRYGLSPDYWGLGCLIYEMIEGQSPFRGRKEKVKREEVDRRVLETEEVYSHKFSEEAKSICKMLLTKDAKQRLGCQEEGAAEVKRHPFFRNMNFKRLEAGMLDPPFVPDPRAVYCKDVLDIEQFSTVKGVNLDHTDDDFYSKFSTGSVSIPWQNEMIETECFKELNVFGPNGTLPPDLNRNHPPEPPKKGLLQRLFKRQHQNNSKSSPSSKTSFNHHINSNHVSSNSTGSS

Sequence of Calcium/calmodulin-dependent protein kinase type II subunit beta (Homo sapiens) (Q13554 whole entry): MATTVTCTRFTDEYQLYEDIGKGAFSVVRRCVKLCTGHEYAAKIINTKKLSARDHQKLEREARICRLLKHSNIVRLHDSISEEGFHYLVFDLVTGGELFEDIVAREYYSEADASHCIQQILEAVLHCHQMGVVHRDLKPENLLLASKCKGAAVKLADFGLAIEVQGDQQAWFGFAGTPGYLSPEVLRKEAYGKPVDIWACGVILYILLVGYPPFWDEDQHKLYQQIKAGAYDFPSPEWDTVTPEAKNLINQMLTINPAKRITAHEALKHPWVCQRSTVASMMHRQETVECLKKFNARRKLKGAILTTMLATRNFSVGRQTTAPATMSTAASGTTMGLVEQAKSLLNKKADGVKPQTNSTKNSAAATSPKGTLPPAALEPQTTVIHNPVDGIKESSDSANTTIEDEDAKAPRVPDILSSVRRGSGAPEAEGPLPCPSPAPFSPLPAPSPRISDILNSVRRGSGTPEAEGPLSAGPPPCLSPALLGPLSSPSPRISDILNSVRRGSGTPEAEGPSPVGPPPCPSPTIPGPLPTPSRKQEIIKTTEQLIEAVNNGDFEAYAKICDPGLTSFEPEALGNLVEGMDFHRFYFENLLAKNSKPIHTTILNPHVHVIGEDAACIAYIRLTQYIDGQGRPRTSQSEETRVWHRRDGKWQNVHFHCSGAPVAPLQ

Row | Structure (SMILES) | residual activity [1] [%] | residual activity [2] [%] | residual activity [3] [%] | residual activity [4] [%] | residual activity [5] [%]
1 | Cc1cc(-c2cnc(N)c3c(-c4ccc5scnc5c4)csc23)n(C)n1 | 51.6 | 56.3 | 100 | 85 | 96.5
2 | CC(C)S(=O)(=O)c1ccc2nccc(Nc3ccc4scnc4c3)c2c1 | 98.9 | 60.2 | 104 | 97.5 | 97.4
3 | CNC(=O)c1ccc2c(c1)ncn2-c1ccc(CC(=O)OC(C)(C)C)cc1 | 99.5 | 89.7 | 98.3 | 96.1 | 94.7

— ChEMBL document CHEMBL5649166, “RIP3 induces apoptosis independent of pronecrotic kinase activity” (Mol Cell, 2014)
